Source: publication PMC9150124, “Design of a Potent, Selective, and Brain-Penetrant Inhibitor of Wnt-Deactivating Enzyme Notum by Optimization of a Crystallographic Fragment Hit” (Journal of Medicinal Chemistry, 2022)
Entries after “also recorded” stand apart in the source; their conditions may differ. Read-outs that look alike come from different tables or passages of the source.

What was measured:
Wnt signaling = test: TCF/LEF reporter (Luciferase) assay in the absence of Notum; type: cell-based; details: up to 10 μM; n = 4
Description: Figure S10. Notum TCF/LEF reporter (Luciferase) data with WNT3A (100 ng/mL) in the absence of Notum.
Examples are from different
Additional inhibition -concentration curves for compounds 6-9 will be made available upon reasonable request.

MDR1 (P-gp) = test: in vitro; details: dog
in vitro = details: dog
P-gp (MDR1) = test: in vitro; details: dog
hERG = target: T1, hERG (Homo sapiens, UniProt Q12809); test: Safety47 hERG assay; type: cell-based
T1 construct: Eurofins (DiscoverX Safety47)
Description: Screening for off-target pharmacology across multiple drug target classes was performed in the DiscoverX Safety47 panel as the SAFETYscan E/IC50 ELECT service by Eurofins (San Diego CA, U.S.A.). Assay information and data are presented in the Supporting Information.

CYP450 enzymes = test: CYP time-dependent inactivation (IC50 shift); type: in vitro ADME, human; details: HLM preincubation ± NADPH
[1] = target: panel of 485 distinct kinases; test: Kinase selectivity panel (SelectScreen); type: biochemical
[2] = Brain tissue binding, rapid equilibrium dialysis; type: in vitro ADME, mouse; details: for fraction unbound at 5 h, 10 µM: brain homogenate
Description: Method: rapid equilibrium dialysis.
Test System Mouse Brain Homogenate 10% w/v in PBS
No. of Replicates Two (mouse) or three (rat)
Buffer Phosphate buffer saline, pH 7.4

[3] = target: kinase named in conditions (Homo sapiens, UniProt Q9BWU1); test: SelectScreen kinase profiling, SSBK LanthaScreen Binding SP Technology; details: 10 μM
[4] = target: kinase named in conditions (Homo sapiens, UniProt O14976); test: as above; details: GAK, 10 μM
[5] = target: kinase named in conditions (Homo sapiens, UniProt P10721, A829P); test: as above; details: KIT A829P, 10 μM
[6] = target: kinase named in conditions (Homo sapiens, UniProt Q92630); test: as above; details: DYRK2, 10 μM
[7] = target: kinase named in conditions (Homo sapiens, UniProt Q13163); test: as above; details: MAP2K5 (MEK5), 10 μM
[8] = target: kinase named in conditions (Homo sapiens, UniProt P10721, V654A); test: as above; details: KIT V654A, 10 μM
[9] = target: kinase named in conditions (Homo sapiens, UniProt P15056); test: as above; details: BRAF, 10 μM
[10] = target: kinase named in conditions (Homo sapiens, UniProt Q5TCX8); test: as above; details: MLK4, 10 μM
[11] = target: kinase named in conditions (Homo sapiens, UniProt P10721, D816H); test: as above; details: KIT D816H, 10 μM
[12] = target: kinase named in conditions (Homo sapiens, UniProt Q15835); test: as above; details: GRK1, 10 μM
[13] = target: kinase named in conditions (Homo sapiens, UniProt Q15746); test: as above; details: MYLK (MLCK), 10 μM
in vivo = test: in vivo; parameters: species or system mouse
Description: Mouse pharmacokinetic (PK) data was generated at Charles River Laboratories (Groningen, Netherlands) and GVK
Biosciences (Hyderabad, India). Rat PK was performed by WuXi AppTec (Shanghai, China).
Animal Testing Declaration: All in life phase studies were conducted in accordance with local Ethics Review
process. See, statements from each company.

[14] = MDCK-MDR1, MDCK-MDR1 AB Papp, apical to basal
[15] = MDCK-MDR1, MDCK-MDR1 BA Papp, basal to apical
[16] = male C57BL6 mice, i.v. 1.0 mg/kg

Sequence of kinase named in conditions (Homo sapiens, UniProt Q9BWU1) (Q9BWU1 whole entry): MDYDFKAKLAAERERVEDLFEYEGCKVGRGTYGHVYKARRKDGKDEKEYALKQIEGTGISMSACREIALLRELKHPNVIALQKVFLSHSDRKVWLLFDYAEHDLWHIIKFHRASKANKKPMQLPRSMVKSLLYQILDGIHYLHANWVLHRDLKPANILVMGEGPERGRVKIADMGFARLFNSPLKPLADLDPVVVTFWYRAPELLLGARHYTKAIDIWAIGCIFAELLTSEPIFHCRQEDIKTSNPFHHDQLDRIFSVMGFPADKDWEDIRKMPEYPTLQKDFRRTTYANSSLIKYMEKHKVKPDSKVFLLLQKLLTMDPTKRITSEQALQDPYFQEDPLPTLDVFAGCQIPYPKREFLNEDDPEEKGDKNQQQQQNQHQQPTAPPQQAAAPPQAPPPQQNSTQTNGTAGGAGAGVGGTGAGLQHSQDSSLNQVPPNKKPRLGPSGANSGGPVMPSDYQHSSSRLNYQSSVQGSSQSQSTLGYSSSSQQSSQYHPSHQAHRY
Sequence of kinase named in conditions (Homo sapiens, UniProt O14976) (O14976 whole entry): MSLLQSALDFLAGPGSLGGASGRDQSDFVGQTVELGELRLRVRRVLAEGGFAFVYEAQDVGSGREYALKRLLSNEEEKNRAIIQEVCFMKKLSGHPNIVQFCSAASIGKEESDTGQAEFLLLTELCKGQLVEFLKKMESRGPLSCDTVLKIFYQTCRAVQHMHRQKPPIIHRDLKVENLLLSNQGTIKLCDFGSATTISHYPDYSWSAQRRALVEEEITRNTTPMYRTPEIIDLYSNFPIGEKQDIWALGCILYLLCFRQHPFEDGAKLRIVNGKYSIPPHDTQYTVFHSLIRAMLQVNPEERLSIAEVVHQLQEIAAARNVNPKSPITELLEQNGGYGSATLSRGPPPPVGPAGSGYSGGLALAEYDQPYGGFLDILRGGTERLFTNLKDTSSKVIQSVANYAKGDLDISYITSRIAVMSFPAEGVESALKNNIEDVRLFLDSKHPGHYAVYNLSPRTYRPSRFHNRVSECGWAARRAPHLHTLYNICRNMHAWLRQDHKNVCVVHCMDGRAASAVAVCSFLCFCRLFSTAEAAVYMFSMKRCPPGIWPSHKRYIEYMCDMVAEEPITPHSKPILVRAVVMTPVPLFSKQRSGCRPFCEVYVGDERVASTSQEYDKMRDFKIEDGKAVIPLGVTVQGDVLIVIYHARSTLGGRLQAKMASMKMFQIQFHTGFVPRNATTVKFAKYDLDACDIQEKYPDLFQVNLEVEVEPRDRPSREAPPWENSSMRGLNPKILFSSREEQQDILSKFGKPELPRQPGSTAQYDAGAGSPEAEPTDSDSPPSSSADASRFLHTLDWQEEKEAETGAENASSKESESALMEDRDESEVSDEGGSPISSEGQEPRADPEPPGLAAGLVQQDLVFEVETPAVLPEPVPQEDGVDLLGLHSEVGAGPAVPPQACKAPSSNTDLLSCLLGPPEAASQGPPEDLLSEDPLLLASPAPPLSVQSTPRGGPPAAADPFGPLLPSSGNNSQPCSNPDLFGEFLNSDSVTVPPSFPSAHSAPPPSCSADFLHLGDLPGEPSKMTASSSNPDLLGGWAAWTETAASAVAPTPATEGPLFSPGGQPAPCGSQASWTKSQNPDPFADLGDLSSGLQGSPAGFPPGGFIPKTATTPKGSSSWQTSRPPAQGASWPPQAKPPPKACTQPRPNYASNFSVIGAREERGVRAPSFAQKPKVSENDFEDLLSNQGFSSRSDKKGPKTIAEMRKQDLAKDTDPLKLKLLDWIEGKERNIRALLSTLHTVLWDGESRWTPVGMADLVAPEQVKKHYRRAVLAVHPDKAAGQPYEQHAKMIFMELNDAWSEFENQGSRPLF
T1 sequence (Q12809 whole entry): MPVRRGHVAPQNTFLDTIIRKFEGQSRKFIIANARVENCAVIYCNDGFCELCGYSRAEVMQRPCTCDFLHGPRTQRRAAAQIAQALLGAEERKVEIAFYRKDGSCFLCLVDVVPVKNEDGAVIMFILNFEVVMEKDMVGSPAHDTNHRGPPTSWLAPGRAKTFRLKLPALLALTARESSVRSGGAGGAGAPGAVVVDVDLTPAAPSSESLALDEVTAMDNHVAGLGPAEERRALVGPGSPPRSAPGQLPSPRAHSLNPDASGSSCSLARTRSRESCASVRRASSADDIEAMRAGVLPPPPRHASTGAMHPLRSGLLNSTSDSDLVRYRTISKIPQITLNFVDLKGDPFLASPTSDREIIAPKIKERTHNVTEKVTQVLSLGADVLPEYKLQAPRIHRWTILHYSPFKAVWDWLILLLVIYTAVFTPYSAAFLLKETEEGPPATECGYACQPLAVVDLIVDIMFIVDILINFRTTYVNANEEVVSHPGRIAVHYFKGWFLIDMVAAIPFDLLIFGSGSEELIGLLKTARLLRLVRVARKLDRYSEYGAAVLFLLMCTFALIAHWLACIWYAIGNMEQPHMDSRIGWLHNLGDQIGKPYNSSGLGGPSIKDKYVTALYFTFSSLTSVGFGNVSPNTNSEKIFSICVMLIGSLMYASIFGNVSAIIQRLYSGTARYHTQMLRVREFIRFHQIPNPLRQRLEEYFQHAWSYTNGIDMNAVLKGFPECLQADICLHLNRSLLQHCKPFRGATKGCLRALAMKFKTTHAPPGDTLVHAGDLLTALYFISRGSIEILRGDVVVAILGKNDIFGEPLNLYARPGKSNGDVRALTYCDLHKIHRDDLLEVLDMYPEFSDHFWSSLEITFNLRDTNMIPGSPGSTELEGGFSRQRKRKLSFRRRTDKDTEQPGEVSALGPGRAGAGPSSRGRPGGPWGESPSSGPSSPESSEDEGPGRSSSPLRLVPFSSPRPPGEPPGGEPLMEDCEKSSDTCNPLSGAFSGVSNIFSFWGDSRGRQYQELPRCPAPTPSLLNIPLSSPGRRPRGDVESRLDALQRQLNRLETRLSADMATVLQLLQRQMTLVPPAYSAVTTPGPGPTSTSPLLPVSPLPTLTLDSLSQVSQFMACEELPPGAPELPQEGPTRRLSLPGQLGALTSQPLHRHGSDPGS
Sequence of kinase named in conditions (Homo sapiens, UniProt Q5TCX8) (Q5TCX8 whole entry): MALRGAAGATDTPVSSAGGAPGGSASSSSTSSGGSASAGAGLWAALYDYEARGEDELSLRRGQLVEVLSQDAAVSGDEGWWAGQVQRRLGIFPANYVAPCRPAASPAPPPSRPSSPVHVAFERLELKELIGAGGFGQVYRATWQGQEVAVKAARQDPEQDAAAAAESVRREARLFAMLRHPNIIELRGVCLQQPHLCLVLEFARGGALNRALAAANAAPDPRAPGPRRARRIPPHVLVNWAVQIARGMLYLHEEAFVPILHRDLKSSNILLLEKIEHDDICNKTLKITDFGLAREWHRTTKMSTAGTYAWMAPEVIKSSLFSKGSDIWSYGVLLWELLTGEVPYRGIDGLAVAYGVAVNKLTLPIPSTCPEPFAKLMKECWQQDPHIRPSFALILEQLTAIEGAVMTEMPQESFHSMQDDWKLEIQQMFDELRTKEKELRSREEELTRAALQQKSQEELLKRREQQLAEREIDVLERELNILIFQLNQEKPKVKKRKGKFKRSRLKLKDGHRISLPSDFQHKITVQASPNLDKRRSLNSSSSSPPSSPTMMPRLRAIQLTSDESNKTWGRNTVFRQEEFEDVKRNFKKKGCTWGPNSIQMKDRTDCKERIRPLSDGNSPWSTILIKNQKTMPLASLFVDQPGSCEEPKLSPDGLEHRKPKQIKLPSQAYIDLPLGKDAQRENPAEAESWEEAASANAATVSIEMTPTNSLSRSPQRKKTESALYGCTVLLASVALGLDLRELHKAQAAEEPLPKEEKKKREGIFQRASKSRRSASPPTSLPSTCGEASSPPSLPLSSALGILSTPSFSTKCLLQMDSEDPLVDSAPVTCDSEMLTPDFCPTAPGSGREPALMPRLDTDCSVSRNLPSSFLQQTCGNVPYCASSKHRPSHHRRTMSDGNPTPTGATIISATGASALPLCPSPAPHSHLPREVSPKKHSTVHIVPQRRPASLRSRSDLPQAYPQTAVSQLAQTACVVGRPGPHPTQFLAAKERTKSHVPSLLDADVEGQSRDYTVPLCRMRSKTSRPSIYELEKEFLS
Sequence of kinase named in conditions (Homo sapiens, UniProt Q92630) (Q92630 whole entry): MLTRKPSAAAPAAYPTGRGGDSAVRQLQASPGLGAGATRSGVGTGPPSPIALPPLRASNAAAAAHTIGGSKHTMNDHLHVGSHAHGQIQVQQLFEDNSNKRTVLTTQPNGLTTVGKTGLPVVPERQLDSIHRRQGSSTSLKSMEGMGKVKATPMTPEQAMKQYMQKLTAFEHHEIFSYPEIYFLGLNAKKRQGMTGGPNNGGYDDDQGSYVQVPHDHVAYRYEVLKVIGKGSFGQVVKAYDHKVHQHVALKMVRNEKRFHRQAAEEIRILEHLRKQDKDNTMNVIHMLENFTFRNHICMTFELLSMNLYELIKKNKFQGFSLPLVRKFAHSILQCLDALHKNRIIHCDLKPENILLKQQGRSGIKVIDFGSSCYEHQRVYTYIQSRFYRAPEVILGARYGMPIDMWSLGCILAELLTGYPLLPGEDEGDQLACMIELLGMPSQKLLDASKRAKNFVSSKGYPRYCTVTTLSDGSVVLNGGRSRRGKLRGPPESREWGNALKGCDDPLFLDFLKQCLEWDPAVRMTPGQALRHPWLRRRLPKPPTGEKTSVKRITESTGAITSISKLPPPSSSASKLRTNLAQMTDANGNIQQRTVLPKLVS
Sequence of kinase named in conditions (Homo sapiens, UniProt Q13163) (Q13163 whole entry): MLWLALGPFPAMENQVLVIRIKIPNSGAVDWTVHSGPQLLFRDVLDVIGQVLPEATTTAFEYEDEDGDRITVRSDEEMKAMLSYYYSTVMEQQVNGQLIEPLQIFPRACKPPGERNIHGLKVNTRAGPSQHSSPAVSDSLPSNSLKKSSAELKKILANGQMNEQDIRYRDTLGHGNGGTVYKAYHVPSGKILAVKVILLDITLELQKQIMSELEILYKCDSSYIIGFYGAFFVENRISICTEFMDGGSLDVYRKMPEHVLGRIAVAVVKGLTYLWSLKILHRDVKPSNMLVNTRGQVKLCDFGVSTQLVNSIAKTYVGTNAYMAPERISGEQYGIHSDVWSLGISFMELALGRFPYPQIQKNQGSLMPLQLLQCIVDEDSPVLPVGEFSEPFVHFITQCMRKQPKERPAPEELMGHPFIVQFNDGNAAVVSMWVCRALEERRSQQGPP

With `FC(F)(F)c1c(Cl)ccc(-n2ccnn2)c1Cl` [8l, 1-(2,4-Dichloro-3-(trifluoromethyl)phenyl)-1H-1,2,3-triazole] as the compound, how does the “Wnt response in the absence of Notum” value (Wnt signaling) read?
The value was “maximal Wnt response at all concentrations tested”.

And the recovery (MDR1 (P-gp); MDCK-MDR1, MDR1-MDCKII A to B % Recovery)?
The recovery was 85.1%.

And the recovery (MDR1 (P-gp); MDCK-MDR1, MDR1-MDCKII B to A % Recovery)?
The recovery was 90.5%.

And the Papp (in vitro; [14])?
The Papp was 31 ×10⁻⁶ cm/s.

What about the Papp (in vitro; [15]) of the same compound?
Its Papp is 39 ×10⁻⁶ cm/s.

What about the Papp (P-gp (MDR1); [14]) of the same compound?
Its Papp is 31.4 ×10⁻⁶ cm/s.

What about the Papp (P-gp (MDR1); [15]) of the same compound?
The Papp was 39.2 ×10⁻⁶ cm/s.

What about the IC50 (hERG) of the same compound?
Its IC50 is greater than 30 µM.

What about the “CYP TDI” value (CYP450 enzymes) of the same compound?
Its value is “no evidence for CYP time-dependent inactivation (TDI); also recorded: negative”.

What about the “kinases with >50% inhibition” value ([1]; @10 μM) of the same compound?
The value was 0/485.

And the “inhibition for all kinases of the panel” value ([1]; at 10 μM)?
Its value is less than 50%.

What about the fraction unbound at 5 h, 10 µM ([2]; 10% w/v in PBS, pH 7.4, mouse, 10 µM, 5 h, read-out: % Unbound in brain homogenate, mean) of the same compound?
Its fraction unbound at 5 h, 10 µM is 0.0298.

And the “Brain binding, % bound” value ([2]; mouse brain homogenate)?
Its value is 97.0%.

And the fraction unbound at 5 h, 10 µM ([2]; mouse, 10% w/v in PBS, pH 7.4, mouse brain homogenate, read-out: Brain binding, % bound (converted))?
The fraction unbound at 5 h, 10 µM was 0.0298.

And the recovery at 5 h, 10 µM ([2]; mouse, mouse brain homogenate, 10% w/v in PBS, pH 7.4)?
Its recovery at 5 h, 10 µM is 107%.

What about the inhibition at 10 µM ([3]; CDK11 (Inactive)) of the same compound?
Its inhibition at 10 µM is 12%.

And the inhibition at 10 µM ([3]; CDK11/cyclin C)?
The inhibition at 10 µM was 23%.

What about the inhibition at 10 µM [4] of the same compound?
Its inhibition at 10 µM is 17%.

What about the inhibition at 10 µM [5] of the same compound?
The inhibition at 10 µM was -3%.

What about the inhibition at 10 µM [6] of the same compound?
The inhibition at 10 µM was -1%.

And the inhibition at 10 µM [7]?
The inhibition at 10 µM was -6%.

What about the inhibition at 10 µM [8] of the same compound?
The inhibition at 10 µM was 14%.

What about the inhibition at 10 µM [9] of the same compound?
Its inhibition at 10 µM is 7%.

What about the inhibition at 10 µM [10] of the same compound?
The inhibition at 10 µM was 11%.

And the inhibition at 10 µM [11]?
The inhibition at 10 µM was -2%.

And the inhibition at 10 µM [12]?
The inhibition at 10 µM was 3%.

What about the inhibition at 10 µM [13] of the same compound?
The inhibition at 10 µM was 3%.

What about the CL (in vivo; [16]) of the same compound?
The CL was 10.4 mL/min/kg.

What about the Vdss (in vivo; [16]) of the same compound?
The Vdss was 2.0 L/kg.

And the AUC(0-inf) (in vivo; mouse, 2x30 mg/kg po, plasma)?
Its AUC(0-inf) is 83400 ng·h/mL.

What about the AUC(0-t) (in vivo; mouse, 2x30 mg/kg po, plasma) of the same compound?
Its AUC(0-t) is 82400 ng·h/mL.

And the half-life (in vivo; mouse, 2x30 mg/kg po, plasma)?
The half-life was 2.97 h.

And the Tmax (in vivo; mouse, 2x30 mg/kg po, plasma, read-out: Tmax)?
Its Tmax is 9.5 h.

And the concentration at 10 h (in vivo; mouse, brain, po, mouse 2x30 mg/kg po, read-out: Brain concentration, individual animal)?
Its concentration at 10 h is 7250 ng/g.

And the Fo (in vivo; mouse, p.o. 10 mg/kg)?
Its Fo is 66%.

What about the “brain Cmax (free drug)” value (in vivo; mouse, p.o. 10 mg/kg) of the same compound?
The value was “≈ 300 nM”.

What about the Tmax (in vivo; mouse, p.o. 10 mg/kg, brain) of the same compound?
Its Tmax is 1.0 h.

What about the t1/2 (in vivo; mouse, p.o. 10 mg/kg, brain) of the same compound?
Its t1/2 is 2.2 h.

And the “time brain levels maintained above 100 nM” value (in vivo; mouse, p.o. 10 mg/kg, free drug)?
The value was roughly 4 h.

And the Tmax (in vivo; mouse, p.o. 10 mg/kg, plasma)?
The Tmax was 0.5 h.

And the concentration at 0.5 h (in vivo; mouse, plasma, po, mouse 2x30 mg/kg po, 0.5 hr, read-out: Plasma concentration, individual animal)?
The concentration at 0.5 h was 5090 ng/mL.

And the concentration at 1 h (in vivo; mouse, plasma, po, mouse 2x30 mg/kg po, 1 hr, read-out: Plasma concentration, individual animal)?
The concentration at 1 h was 4920 ng/mL.

What about the concentration at 2 h (in vivo; mouse, plasma, po, mouse 2x30 mg/kg po, 2 hr, read-out: Plasma concentration, individual animal) of the same compound?
Its concentration at 2 h is 4000 ng/mL.

What about the concentration at 4 h (in vivo; mouse, plasma, po, mouse 2x30 mg/kg po, 4 hr, read-out: Plasma concentration, individual animal) of the same compound?
The concentration at 4 h was 3180 ng/mL.

And the concentration at 9 h (in vivo; mouse, plasma, po, mouse 2x30 mg/kg po, 9 hr, read-out: Plasma concentration, individual animal)?
Its concentration at 9 h is 645 ng/mL.

And the concentration at 9.25 h (in vivo; mouse, plasma, po, mouse 2x30 mg/kg po, 9.25 hr, read-out: Plasma concentration, individual animal)?
The concentration at 9.25 h was 5940 ng/mL.

And the concentration at 9.5 h (in vivo; mouse, plasma, po, mouse 2x30 mg/kg po, 9.5 hr, read-out: Plasma concentration, individual animal)?
The concentration at 9.5 h was 7570 ng/mL.

And the concentration at 10 h (in vivo; mouse, plasma, po, mouse 2x30 mg/kg po, read-out: Plasma concentration, individual animal)?
The concentration at 10 h was 6270 ng/mL.

What about the concentration at 11 h (in vivo; mouse, plasma, po, mouse 2x30 mg/kg po, 11 hr, read-out: Plasma concentration, individual animal) of the same compound?
The concentration at 11 h was 6850 ng/mL.
